Test results published in ChEMBL document CHEMBL1135570, “Acyclic analogues of adenosine bisphosphates as P2Y receptor antagonists: phosphate substitution leads to multiple pathways of inhibition of platelet aggregation” (J Med Chem, 2002).

Species: Rattus norvegicus
Experiment: Inhibition of ADP-induced activation of rat platelets using aggregometry
Format: functional

Question: With `CNc1nc(Cl)nc2c1ncn2C[C@H](COP(=O)(O)O)OP(=O)(O)O` as the molecule, how does the Ki read?
Answer: 2.6 µM

Question: For `CNc1nc(Cl)nc2c1ncn2C(COP(=O)(O)O)COP(=O)(O)O`, which Ki is on record?
Answer: 5.5 µM

Question: Which Ki does the source give for `CNc1nc(Cl)nc2c1ncn2CC(COP(=O)(O)O)COP(=O)(O)O` here?
Answer: 0.3 µM

Question: With `CNc1nc(Cl)nc2c1ncn2C[C@@H](COP(=O)(O)O)OP(=O)(O)O` as the molecule, how does the Ki read?
Answer: 1.4 µM

Question: For `CNc1nc(Cl)nc2c1ncn2CCC(COP(=O)(O)O)COP(=O)(O)O`, which Ki is on record?
Answer: 0.46 µM

Question: `CNc1ncnc2c1ncn2[C@H]1C[C@H](OP(=O)(O)O)[C@@H](COP(=O)(O)O)O1` was tested. Which Ki did it give?
Answer: 0.58 µM

Question: `CNc1nc(Cl)nc2c1ncn2C1C[C@@H](OC(=O)NC(C)C)[C@@H](COP(=O)(O)O)O1` (stereo partly drawn) was tested. Which Ki did it give?
Answer: 6.4 µM

Question: How did the Ki turn out when `CNc1nc(Cl)nc2c1ncn2[C@H]1CC(OC(C)=O)[C@]2(COP(=O)(O)O)CC12` (stereo partly drawn) was run?
Answer: 10 µM

Question: How did the Ki turn out when `CNc1nc(Cl)nc2c1ncn2CC(COC(C)=O)COC(C)=O` was run?
Answer: 18 µM

Question: How did the Ki turn out when `CNc1nc(Cl)nc2c1ncn2CC(COC(=O)Nc1ccccc1)COC(=O)Nc1ccccc1` was run?
Answer: 24 µM

Question: With `CCC(=O)OCC(COP(=O)(O)O)Cn1cnc2c(NC)nc(Cl)nc21` (stereo not drawn) as the molecule, how does the Ki read?
Answer: 21 µM

Question: `CNc1nc(Cl)nc2c1ncn2[C@H]1CC(OP(=O)(O)O)[C@]2(COC(C)=O)CC12` (stereo partly drawn) was tested. Which Ki did it give?
Answer: 16 µM

Question: `CNc1nc(Cl)nc2c1ncn2CC(CP(=O)(O)O)CP(=O)(O)O` was tested. Which Ki did it give?
Answer: 0.68 µM

Question: `CNc1nc(Cl)nc2c1ncn2CC(COC(C)=O)COC(=O)Cc1ccccc1` (stereo not drawn) was tested. Which Ki did it give?
Answer: 12.3 µM

Question: Which Ki does the source give for `CNc1nc(Cl)nc2c1ncn2[C@H]1CC(O)[C@]2(COP(=O)(O)O)CC12` (stereo partly drawn) here?
Answer: 33 µM

Question: With `CNc1nc(Cl)nc2c1ncn2CC(COP(=O)(O)OP(=O)(O)O)CP(=O)(O)O` (stereo not drawn) as the molecule, how does the Ki read?
Answer: 1.1 µM

Question: Which Ki does the source give for `CNc1nc(Cl)nc2c1ncn2CC(COC(C)=O)COC(=O)c1ccccc1` (stereo not drawn) here?
Answer: 6.9 µM

Question: Which Ki does the source give for `CNc1nc(Cl)nc2c1ncn2CC(COC(=O)c1ccccc1)COC(=O)c1ccccc1` here?
Answer: 5.1 µM

Question: `CNc1nc(Cl)nc2c1ncn2CC(COC(=O)Oc1ccccc1)COC(=O)Oc1ccccc1` was tested. Which Ki did it give?
Answer: 26 µM

Question: Which Ki does the source give for `CNc1nc(Cl)nc2c1ncn2CC(COC(=O)c1ccccc1F)COC(=O)c1ccccc1F` here?
Answer: 24 µM

Question: Which Ki does the source give for `CNc1nc(Cl)nc2c1ncn2CC(COC(=S)SCc1ccccc1)COC(=S)SCc1ccccc1` here?
Answer: 87 µM

Question: For `CNc1nc(Cl)nc2c1ncn2CC(COC(=O)c1ccccc1)COP(=O)(O)O` (stereo not drawn), which Ki is on record?
Answer: 18 µM

Question: How did the Ki turn out when `CNc1nc(Cl)nc2c1ncn2CC(COC(=O)CCC(=O)O)COC(=O)CCC(=O)O` was run?
Answer: 18 µM

Question: How did the Ki turn out when `C/C=C\C(=O)OCC(COC(=O)/C=C/C)Cn1cnc2c(NC)nc(Cl)nc21` (stereo not drawn) was run?
Answer: 10 µM

Question: For `CNc1nc(Cl)nc2c1ncn2CC(COC(=O)c1c(F)cccc1F)COC(=O)c1c(F)cccc1F`, which Ki is on record?
Answer: 33 µM

Question: How did the Ki turn out when `CNc1nc(Cl)nc2c1ncn2[C@H]1C[C@@H](OP(=O)(O)O)[C@@H](COP(=O)(O)O)O1` was run?
Answer: 0.42 µM

Question: For `CNc1nc(Cl)nc2c1ncn2[C@H]1C[C@@H](OP(=O)(O)O)[C@]2(COP(=O)(O)O)C[C@H]12`, which Ki is on record?
Answer: 0.031 µM

Question: Which Ki does the source give for `CNc1nc(Cl)nc2c1ncn2CC(COC(C)=O)COP(=O)(O)O` (stereo not drawn) here?
Answer: 110 µM

Question: `CNc1ncnc2c1ncn2CC(COP(=O)(O)O)COP(=O)(O)O` was tested. Which Ki did it give?
Answer: 0.51 µM

Question: `CNc1nc(Cl)nc2c1ncn2[C@H]1CC(OC(C)=O)[C@]2(COC(C)=O)CC12` (stereo partly drawn) was tested. Which Ki did it give?
Answer: 29 µM

Question: How did the Ki turn out when `CCC(=O)OCC(COC(=O)CC)Cn1cnc2c(NC)nc(Cl)nc21` was run?
Answer: 23 µM

Question: How did the Ki turn out when `CNc1nc(Cl)nc2c1ncn2CC(COC(=O)Cc1ccccc1)COC(=O)Cc1ccccc1` was run?
Answer: 2 µM

Question: For `CCNC(=O)O[C@@H]1CC(n2cnc3c(NC)nc(Cl)nc32)O[C@@H]1COP(=O)(O)O` (stereo partly drawn), which Ki is on record?
Answer: 11 µM

Question: With `CNc1nc(Cl)nc2c1ncn2CC(COC(=O)C(C)(C)C)COP(=O)(O)O` (stereo not drawn) as the molecule, how does the Ki read?
Answer: 29 µM

Question: `CNc1nc(Cl)nc2c1ncn2CC(COC(=O)C(C)(C)C)COC(=O)C(C)(C)C` was tested. Which Ki did it give?
Answer: 3.6 µM

Question: `CNc1nc(Cl)nc2c1ncn2CC(COC(=O)Nc1ccccc1)COP(=O)(O)O` (stereo not drawn) was tested. Which Ki did it give?
Answer: 2.5 µM

Question: Which Ki does the source give for `CNc1nc(Cl)nc2c1ncn2[C@H]1CC(OP(=O)(O)O)[C@]2(CO)CC12` (stereo partly drawn) here?
Answer: 29 µM

Question: Which Ki does the source give for `CNc1nc(Cl)nc2c1ncn2CC(CCCP(=O)(O)O)CCCP(=O)(O)O` here?
Answer: 25 µM
